From patent US20130303562A1, “CHEMICAL AND RNAI SUPPRESSORS OF NEUROTOXICITY IN HUNTINGTON'S DISEASE” (priority 2010, published 2013)

Tests used:
[1] = system: subject carrying a polyQ tract expansion mutation in the Huntingtin gene; assay: Carbenoxolone in pre-symptomatic HD patients; format: in vivo, human; details: administered before clinical symptoms manifest, from about 150 mg/day
Method: After a period of time sufficient for a change in a cortisol level to manifest, e.g. after about a week, about two weeks, about three weeks, or about a month, the cortisol level in the subject is measured. […] For example, in some embodiments, the dose may be increased from about 150 mg/day to about 300 mg/day. In some embodiments, the cortisol level in the subject is measured again after dose adjustment and, if the cortisol level remains elevated, the dose is increased further. For example, in some embodiments, the dose may be increased from about 300 mg/day to about 450 mg/day. In some embodiments, multiple cycles of dose adjustment and cortisol level measurement are performed until a desired cortisol level is observed in the subject, for example, a blood plasma cortisol level within the range of 70-700 nmol/l or 70-350 nmol/l. For example, in some embodiments, the dose may be increased from about 150 mg/day to about 300 mg/day in a first dose adjustment, then to about 450 mg/day, then to about 500 mg/day, then to about 600 mg/day. […] In some cases, the dosage may be decreased below 150 mg/day, particularly, where a desired reduction in a cortisol level is still observed with lower doses. […]

gap junction = details: cited from earlier work
HD model strain mice [2] = assay: Rotarod assay in HD model strain mice; format: in vivo, mouse; details: treated from 4 weeks, tested at 8 weeks of age, vs untreated HD mice
Text: Mouse strains: Mouse strain names provided herein adhere to the Guidelines for Nomenclature of Mouse and Rat Strains, Revised October 2011, International Committee on Standardized Genetic Nomenclature for Mice, accessible at www.informatics.jax.org/mgihome/nomen/strains.shtml. Official gene symbols, or, where appropriate, official mouse strain names of the Jackson Laboratory (www.jax.org, e.g., the Jackson Laboratory Mice Database at jaxmice.jax.org) are used. […]
Rotarod assay: Mice are habituated to balancing on a slowly rotating rotarod (5 rpm). […] The time to fall off the rod, onto a platform located ˜30 cm below the rod, is measured. The increase in latency to fall during the course of training is compared between four groups of mice for each candidate compound to be evaluated (Mutant+candidate, mutant no candidate, wild type+candidate, wild type no candidate). […]
At 8 weeks of age, motor and cognitive performance are tested in rotarod and water maze assays. Untreated mice are expected to show a significant impairment of motor and cognitive capabilities at 8 weeks of age, as measured by a shortened latency to fall in the rotarod assay, and a lengthened latency to escape in the water maze assy, respectively, as compared to wid type control mice.

HD model strain mice [3] = assay: Morris water maze assay in HD model strain mice; format: in vivo, mouse; details: treated from 4 weeks, tested at 8 weeks of age, vs untreated HD mice
Text: Mouse strains: Mouse strain names provided herein adhere to the Guidelines for Nomenclature of Mouse and Rat Strains, Revised October 2011, International Committee on Standardized Genetic Nomenclature for Mice, accessible at www.informatics.jax.org/mgihome/nomen/strains.shtml. Official gene symbols, or, where appropriate, official mouse strain names of the Jackson Laboratory (www.jax.org, e.g., the Jackson Laboratory Mice Database at jaxmice.jax.org) are used. There are numerous HD mouse strains suitable for candidate compound or nucleic acid construct screening, and for pre-clinical evaluations of candidates for the treatment of HD such as the HD model strains R6/2, R6/1, N171-82Q, CAG140, HdhQ111, BACHD, and CAG150 (Crook Z R, Housman D (2011) Huntington's disease: can mice lead the way to treatment? Neuron. 69:423-35; the entire contents of which are incorporated herein by reference). The HD model strains differ in their manifestations and time line of HD-like symptoms, e.g., motor and cognitive dysfunctions. […]
Morris water maze assay: The water maze assay measures spatial learning in mice. […] The sixth day has a single-trial probe test without the platform, and the time spent in each quadrant is recorded. […] The navigation of the mice is tracked by video camera, and the escape latency to the platform is recorded. […]

CC1(C)[C@@H](OC(=O)CCC(=O)O)CC[C@]2(C)[C@H]3C(=O)C=C4[C@@H]5C[C@@](C)(C(=O)O)CC[C@]5(C)CC[C@@]4(C)[C@]3(C)CC[C@@H]12 [Carbenoxolone]
Onset and severity of HD symptoms [1]: prevention or delay of the onset, and/or an amelioration of the severity of at least one HD symptom
Gap junction activity (gap junction): block gap junction activity
Impairment of motor capabilities (latency to fall, rotarod) (HD model strain mice [2]): lesser degree of impairment
Impairment of cognitive capabilities (latency to escape, water maze) (HD model strain mice [3]): lesser degree of impairment
